{
  "source": "paper PMC5063576",
  "about": "“High Potency VEGFRs/MET/FMS Triple Blockade by TAS-115 Concomitantly Suppresses Tumor Progression and Bone Destruction in Tumor-Induced Bone Disease Model with Lung Carcinoma Cells” (PLoS ONE, 2016)",
  "system": "TRAP-positive osteoclasts at tumor-bone boundary",
  "assay": "TRAP staining of A549-Luc-BM1-implanted tibiae, osteoclast number",
  "format": "in vivo, BALB/c nude mice",
  "conditions": "2 weeks oral; TAS-115 200, cabozantinib 15, sunitinib 40, crizotinib 100 mg/kg, combination; vs control",
  "experimental": "On day 15, the mice were euthanized by cervical dislocation under isoflurane anesthesia, and their tibiae were collected. For CD31 staining, frozen sections (3 μm thick) were prepared using Kawamoto’s film method. Purified Rat Anti-Mouse CD31 (1:100, BD Pharmingen^TM) was detected using Simple Stain^TM Mouse MAX PO (Rat) (Nichirei) and 3,3’-diaminobenzidine (Dako, Glostrup, Denmark). For Ki-67 and TRAP staining, formalin-fixed paraffin-embedded sections (2 μm thick) were prepared. Anti-human Ki-67 Rabbit Monoclonal Antibody (1:50, Epitomics) was detected using the EnVisionTM^+ System (Dako). TRAP staining was performed using the TRAP/ALP Stain Kit (Wako Pure chemical Industries, Ltd.). To quantify each staining, whole slides were scanned under 20× magnification with the Aperio Scan-Scope XT Slide Scanner (Aperio Technologies, Inc., CA). To quantify CD31-positive microvessels as microvessel density (MVD, number/mm^2), four fields of tumor area per section excluding bone and necrotic tissue were analyzed by using Image-Pro Plus (Media Cybernetics, Inc., Carlsbad, CA). […] Ki-67-positive cells and total tumor cells were counted by using Image-Pro Plus. The Ki-67 index is expressed as a percentage (the number of Ki-67-positive tumor cells / the total number of the tumor cells × 100). […] The boundary length was calculated by Image-Pro Plus. […]",
  "data": [
    {"smiles": "CNC(=O)c1cc2c(Oc3ccc(NC(=S)NC(=O)Cc4ccccc4)cc3F)ccnc2cc1OC", "note": "[TAS-115, 4-[2-fluoro-4-[[[(2-phenylacetyl)amino]thioxomethyl]amino]-phenoxy] -7-methoxy-N-methyl-6-quinolinecarboxamide]", "values": [
      {"measurement": "number of TRAP-positive osteoclasts at tumor-bone boundary", "value": "significantly decreased"}
    ]}
  ]
}
